Legend:
Assay in all cases: combination Emax (second highest fraction inhibited in the dose matrix, 72 h); higher = more inhibition; extreme values may be limits of the assay
[1] = system: 697 (B-Lymphoblastic Leukemia)
Summary of the method: (§1)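 Cell lines in DMEM/F12 or RPMI with 10% FBS were plated in 1536-well plates, held 24 hours at 37°C, 5% CO2, then given two-drug dose matrices for 72 hours (DMSO typically 0.2%). Viability was read by CellTiter-Glo 2.0 luminescence and scaled as inhibition from 0 (vehicle wells) to 1 (blank wells). Combination Emax is the second-highest inhibition in the matrix; Bliss excess is observed combination effect minus expected EA + EB − EA·EB, EA and EB being single-agent effects.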

[2] = system: CFPAC-1 (Pancreatic Carcinoma)
Summary of the method: as §1

[3] = system: DOV13 (Ovarian Carcinoma)
Summary of the method: as §1

[4] = system: ES7 (Ewing's Sarcoma)
Summary of the method: as §1

[5] = system: G-292-Clone-A141B1 (Osteosarcoma)
Summary of the method: as §1

[6] = system: HCC2157 (Breast Carcinoma)
Summary of the method: as §1

[7] = system: IGR-1 (Melanoma)
Summary of the method: as §1

[8] = system: IHH-4 (Thyroid Gland Carcinoma)
Summary of the method: as §1

[9] = system: KARPAS-1106P (B-Cell Non-Hodgkin's Lymphoma)
Summary of the method: as §1

[10] = system: KARPAS-620 (Plasma Cell Myeloma)
Summary of the method: as §1

[11] = system: LS-513 (Colorectal Carcinoma)
Summary of the method: as §1

[12] = system: LU-99A (Non-Small Cell Lung Carcinoma)
Summary of the method: as §1

[13] = system: NCI-H1793 (Lung Adenocarcinoma)
Summary of the method: as §1

[14] = system: NCI-H2369 (Mesothelioma)
Summary of the method: as §1

[15] = system: RH-1 (Ewing's Sarcoma)
Summary of the method: as §1

[16] = system: SN12C (Kidney Carcinoma)
Summary of the method: as §1

[17] = system: SUIT-2 (Pancreatic Carcinoma)
Summary of the method: as §1

[18] = system: SW1088 (Low Grade Glioma)
Summary of the method: as §1

[19] = system: SW780 (Bladder Carcinoma)
Summary of the method: as §1

[20] = system: TGBC24TKB (Biliary Tract Carcinoma)
Summary of the method: as §1

| SMILES | combination Emax [1] | combination Emax [2] | combination Emax [3] | combination Emax [4] | combination Emax [5] | combination Emax [6] | combination Emax [7] | combination Emax [8] | combination Emax [9] | combination Emax [10] | combination Emax [11] | combination Emax [12] | combination Emax [13] | combination Emax [14] | combination Emax [15] | combination Emax [16] | combination Emax [17] | combination Emax [18] | combination Emax [19] | combination Emax [20] |
| --- | --- | --- | --- | --- | --- | --- | --- | --- | --- | --- | --- | --- | --- | --- | --- | --- | --- | --- | --- | --- |
| CN(CCO)CC[C@H](CSc1ccccc1)Nc1ccc(S(=O)(=O)NC(=O)c2ccc(N3CCC([C@@H](O)c4ccccc4-c4ccc(Cl)cc4)CC3)cc2)cc1S(=O)(=O)C(F)(F)F [AZD4320] + C1CN(CCC1(C(=O)N[C@@H](CCO)C2=CC=C(C=C2)Cl)N)C3=NC=NC4=C3C=CN4 [Capivasertib] (first compound max 1 µM, 7x7, partner max 3 µM) | 1 | 0.0708 | 0.812 | 0.762 | 0.754 | 0.991 | 0.256 | 0.171 | 0.16 | 1 | 0.324 | 0.35 | 0.195 | 0.859 | 0.394 | 0.0749 | 0.074 | 0.423 | 0.578 | 0.687 |
| Cn1cnc2c(F)c(Nc3ccc(Br)cc3Cl)c(C(=O)NOCCO)cc21 [Selumetinib] + CC(C)n1c(=O)n(C)c2cnc3cc(F)c(-c4ccc(OCCCN5CCCCC5)nc4)cc3c21 [AZD1390] (first compound max 10 µM, 7x7, partner max 0.3 µM) | 0.373 | 0.202 | 0.124 | 0.14 | 0.0339 | 0.238 | 0.296 | 0.436 | 0.0708 | 0.472 | 0.858 | 0.358 | 0.218 | 0.129 | 0.048 | 0.237 | 0.284 | 0.14 | 0.381 | 0.828 |
| CS(=O)(=O)CCNCc1ccc(-c2ccc3ncnc(Nc4ccc(OCc5cccc(F)c5)c(Cl)c4)c3c2)o1 [Lapatinib] + C[C@@H](Oc1cc(-c2cnn(C3CCNCC3)c2)cnc1N)c1c(Cl)ccc(F)c1Cl [Crizotinib] (first compound max 10 µM, 7x7, partner max 10 µM) | 0.996 | 0.963 | 0.886 | 0.927 | 0.71 | 1 | 0.987 | 0.907 | 0.938 | 0.873 | 0.966 | 0.603 | 0.793 | 0.254 | 0.939 | 0.216 | 0.657 | 0.654 | 0.489 | 0.952 |
| CN(CCO)CC[C@H](CSc1ccccc1)Nc1ccc(S(=O)(=O)NC(=O)c2ccc(N3CCC([C@@H](O)c4ccccc4-c4ccc(Cl)cc4)CC3)cc2)cc1S(=O)(=O)C(F)(F)F [AZD4320] + Cc1cc2ncnn2cc1Nc1ncc2c(n1)n(C1CCOCC1)c(=O)n2C [AZD7648] (first compound max 1 µM, 7x7, partner max 10 µM) | 1 | 0.134 | 0.779 | 0.804 | 0.624 | 0.959 | 0.33 | 0.193 | 0.313 | 1 | 0.155 | 0.447 | 0.356 | 0.0705 | 0.438 | 0.145 | 0.104 | 0.332 | 0.484 | 0.682 |
| Cn1cnc2c(F)c(Nc3ccc(Br)cc3Cl)c(C(=O)NOCCO)cc21 [Selumetinib] + C=CCn1c(=O)c2cnc(Nc3ccc(N4CCN(C)CC4)cc3)nc2n1-c1cccc(C(C)(C)O)n1 [AZD1775] (first compound max 10 µM, partner max 1 µM) | 1 | 0.453 | 0.637 | 0.486 | 0.102 | 0.729 | 0.578 | 0.742 | 0.782 | 0.849 | 0.904 | 0.62 | 0.423 | 0.276 | 1 | 0.241 | 0.588 | 0.55 | 0.369 | 0.637 |
| COc1cccc(OCCCN)c1-c1cc(Nc2cnc(C#N)cn2)n[nH]1 [Prexasertib] + C=CCn1c(=O)c2cnc(Nc3ccc(N4CCN(C)CC4)cc3)nc2n1-c1cccc(C(C)(C)O)n1 [AZD1775] (first compound max 1 µM, partner max 1 µM) | 1 | 0.692 | 0.971 | 0.966 | 0.32 | 1 | 0.708 | 0.99 | 0.949 | 0.904 | 0.949 | 0.806 | 0.532 | 0.296 | 1 | 0.608 | 0.707 | 0.848 | 0.303 | 0.896 |
| CC1(C)CCC(CN2CCN(c3ccc(C(=O)NS(=O)(=O)c4ccc(NCC5CCOCC5)c([N+](=O)[O-])c4)c(Oc4cnc5[nH]ccc5c4)c3)CC2)=C(c2ccc(Cl)cc2)C1 [Venetoclax] + Cn1cnc2c(F)c(Nc3ccc(Br)cc3Cl)c(C(=O)NOCCO)cc21 [Selumetinib] (first compound max 1 µM, 7x7, partner max 3 µM) | 1 | 0.275 | 0.157 | 0.7 | 0.146 | 0.278 | 0.301 | 0.539 | 0.476 | 1 | 0.717 | 0.324 | 0.199 | 0.119 | 0.0877 | 0.206 | 0.26 | 0.146 | 0.227 | 0.293 |
| Cc1c2c(nn1C)CSCc1cc(n(C)n1)CSc1cc(c3ccccc3c1)OCCCc1c(C(=O)O)n(C)c3c-2c(Cl)ccc13 [AZD5991] + CCN(CCO)CCCOc1ccc2c(Nc3cc(CC(=O)Nc4cccc(F)c4)[nH]n3)ncnc2c1 [AZD2811] (first compound max 1 µM, 7x7, partner max 1 µM) | 1 | 0.256 | 0.603 | 0.95 | 0.276 | 0.985 | 0.338 | 0.404 | 0.955 | 1 | 0.623 | 0.37 | 0.2 | 0.176 | 0.956 | 0.387 | 0.19 | 0.494 | 0.213 | 0.543 |
| COc1cccc2c1C(=O)c1c(O)c3c(c(O)c1C2=O)C[C@@](O)(C(=O)CO)C[C@@H]3O[C@H]1C[C@H](N)[C@H](O)[C@H](C)O1 [Doxorubicin] + Cc1cc2ncnn2cc1Nc1ncc2c(n1)n(C1CCOCC1)c(=O)n2C [AZD7648] (first compound max 1 µM, 7x7, partner max 10 µM) | 1 | 0.586 | 0.914 | 1 | 0.247 | 0.925 | 0.697 | 0.951 | 0.988 | 0.681 | 0.617 | 0.751 | 0.378 | 0.883 | 1 | 0.642 | 0.646 | 0.477 | 0.235 | 0.318 |
| CC1(C)CCC(CN2CCN(c3ccc(C(=O)NS(=O)(=O)c4ccc(NCC5CCOCC5)c([N+](=O)[O-])c4)c(Oc4cnc5[nH]ccc5c4)c3)CC2)=C(c2ccc(Cl)cc2)C1 [Venetoclax] + C1CN(CCC1(C(=O)N[C@@H](CCO)C2=CC=C(C=C2)Cl)N)C3=NC=NC4=C3C=CN4 [Capivasertib] (first compound max 1 µM, 7x7, partner max 3 µM) | 0.988 | 0.305 | 0.353 | 0.8 | 0.273 | 0.903 | 0.193 | 0.248 | 0.492 | 1 | 0.335 | 0.312 | 0.221 | 0.134 | 0.213 | 0.206 | 0.129 | 0.494 | 0.163 | 0.253 |
| Cc1c2c(nn1C)CSCc1cc(n(C)n1)CSc1cc(c3ccccc3c1)OCCCc1c(C(=O)O)n(C)c3c-2c(Cl)ccc13 [AZD5991] + CN(C)CCCOc1ccc(-c2ccc3ncc4c(c3c2)n(C2CCOCC2)c(=O)n4C)cn1 [AZD0156] (first compound max 1 µM, 7x7, partner max 1 µM) | 1 | 0.209 | 0.324 | 0.726 | 0.332 | 0.98 | 0.327 | 0.265 | 0.925 | 1 | 0.275 | 0.334 | 0.302 | 0.208 | 0.666 | 0.222 | 0.217 | 0.242 | 0.206 | 0.165 |
| CCN(CCO)CCCOc1ccc2c(Nc3cc(CC(=O)Nc4cccc(F)c4)[nH]n3)ncnc2c1 [AZD2811] + O=C(c1cc(Cc2n[nH]c(=O)c3ccccc23)ccc1F)N1CCN(C(=O)C2CC2)CC1 [Olaparib] (first compound max 1 µM, 7x7, partner max 10 µM) | 1 | 0.215 | 0.483 | 0.918 | 0.304 | 0.539 | 0.168 | 0.459 | 0.535 | 0.4 | 0.404 | 0.508 | 0.0897 | 0.216 | 0.947 | 0.273 | 0.0755 | 0.616 | 0.242 | 0.564 |

Source: the supplement of paper PMC11061612
